Data published in PMC3532034 (The Journal of neuroscience : the official journal of the …, 2012).

Target: LRRK2 (leucine-rich repeat kinase 2) (Homo sapiens, UniProt Q5S007)
Experiment: in vitro radiometric kinase assay with recombinant purified LRRK2
Type: biochemical

LRRK2 (leucine-rich repeat kinase 2), sequence (Q5S007 970-2527 limits assumed): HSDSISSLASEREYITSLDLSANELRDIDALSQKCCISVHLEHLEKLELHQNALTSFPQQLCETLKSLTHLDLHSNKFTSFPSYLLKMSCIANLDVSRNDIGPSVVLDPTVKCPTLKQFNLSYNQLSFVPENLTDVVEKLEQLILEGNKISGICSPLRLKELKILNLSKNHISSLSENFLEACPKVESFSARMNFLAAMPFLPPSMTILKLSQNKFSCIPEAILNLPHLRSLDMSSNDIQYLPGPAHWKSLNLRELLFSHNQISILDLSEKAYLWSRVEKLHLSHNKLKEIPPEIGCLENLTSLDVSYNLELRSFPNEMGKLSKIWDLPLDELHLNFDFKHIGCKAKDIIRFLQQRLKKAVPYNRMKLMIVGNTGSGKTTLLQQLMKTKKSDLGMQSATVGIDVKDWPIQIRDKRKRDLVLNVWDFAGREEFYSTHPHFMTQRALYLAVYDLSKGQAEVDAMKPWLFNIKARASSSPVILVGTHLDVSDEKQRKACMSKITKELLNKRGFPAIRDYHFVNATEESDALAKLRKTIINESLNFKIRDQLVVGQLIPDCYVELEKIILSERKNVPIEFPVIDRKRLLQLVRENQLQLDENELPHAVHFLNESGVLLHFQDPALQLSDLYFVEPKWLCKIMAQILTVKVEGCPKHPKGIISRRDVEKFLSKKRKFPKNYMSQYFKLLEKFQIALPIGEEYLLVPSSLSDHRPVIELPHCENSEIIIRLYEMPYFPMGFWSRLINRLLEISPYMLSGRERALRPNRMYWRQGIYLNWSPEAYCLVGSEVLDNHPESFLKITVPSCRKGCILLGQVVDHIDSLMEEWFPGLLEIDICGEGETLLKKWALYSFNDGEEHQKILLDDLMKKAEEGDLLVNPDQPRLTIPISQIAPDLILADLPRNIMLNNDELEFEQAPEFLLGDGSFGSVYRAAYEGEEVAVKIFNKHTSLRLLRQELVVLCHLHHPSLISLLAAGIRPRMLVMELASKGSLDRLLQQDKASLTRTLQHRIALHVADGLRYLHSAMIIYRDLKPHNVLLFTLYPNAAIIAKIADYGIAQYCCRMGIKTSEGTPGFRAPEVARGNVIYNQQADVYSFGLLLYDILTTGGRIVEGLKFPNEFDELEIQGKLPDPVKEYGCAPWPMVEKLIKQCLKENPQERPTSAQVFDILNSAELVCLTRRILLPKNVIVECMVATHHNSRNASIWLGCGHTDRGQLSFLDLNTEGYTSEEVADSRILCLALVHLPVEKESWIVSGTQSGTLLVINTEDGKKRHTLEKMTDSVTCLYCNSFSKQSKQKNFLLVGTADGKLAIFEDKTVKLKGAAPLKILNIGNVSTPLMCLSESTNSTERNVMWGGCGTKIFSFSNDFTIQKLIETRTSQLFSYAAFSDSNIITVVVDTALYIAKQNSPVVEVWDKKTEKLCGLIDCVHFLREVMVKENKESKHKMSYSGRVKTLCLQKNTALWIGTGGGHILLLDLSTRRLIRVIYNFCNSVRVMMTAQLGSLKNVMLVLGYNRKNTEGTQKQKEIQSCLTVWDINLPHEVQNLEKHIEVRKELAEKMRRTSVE

COc1cc(C(=O)N2CCC(N3CCN(C)CC3)CC2)ccc1Nc1ncc2c(n1)N(C)c1ccccc1C(=O)N2C [L2in1]
IC50: 40.3 nM
